Assays:
Details in all cases: synthetic library passage 3, intravenous, relative to wild-type AAV9
[1] = test system: brain; assay: NGS fold enrichment of synthetic library (passage 3) in C57Bl/6 mice, first cross-species screen; type: in vivo
Procedure, shortened: (§1)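 Fold enrichment versus wild-type AAV9 was derived by NGS of RT-PCR-amplified RNA from nervous tissue, collected e.g. 28 days after IV dosing […]. The library (passage 3) was given to two NHPs aged 2-4 years and to 6-8-week BALB/c and C57Bl/6 mice (n=3 each).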

[2] = test system: brain; assay: NGS fold enrichment of synthetic library (passage 3) in BALB/c mice, first cross-species screen; type: in vivo
Procedure, shortened: as §1

[3] = test system: brain, spinal cord, and DRG of the NHPs; assay: NGS fold enrichment of synthetic library (passage 3) in NHPs, first cross-species screen; type: in vivo, cynomolgus macaques (Macaca fascicularis)
Procedure, shortened: as §1

[4] = RNA from brain of C57Bl/6 mice, NGS
[5] = RNA from brain of BALB/c mice, NGS
[6] = RNA from spinal cord of NHPs, NGS

Row | Sequence | Fold enrichment over AAV9 in the brain of Mice (C57Bl/6) ([1]; RNA NGS, brain of C57Bl/6 mice) [fold] | Fold enrichment over AAV9 in the brain of Mice (BALB/c) ([2]; RNA NGS, brain of BALB/c mice) [fold] | Fold enrichment over AAV9 in the brain of NHPs ([3]; RNA NGS, brain of NHPs) [fold] | Fold enrichment over AAV9 in the spinal cord of NHPs ([3]; RNA NGS, spinal cord of NHPs) [fold] | Fold enrichment over AAV9 in the brain of Mice (C57Bl/6) [1, 4] [fold] | Fold enrichment over AAV9 in the brain of Mice (BALB/c) [2, 5] [fold] | Fold enrichment over AAV9 in the brain of NHPs ([3]; RNA from brain of NHPs, NGS) [fold] | Fold enrichment over AAV9 in the spinal cord of NHPs [3, 6] [fold]
1 | GSLSHMESGQNQQT | 0.489 | 0.265 | 1.120 | 0.829 |  |  |  | 
2 | GSLSSHGVGQNQQT | 1.218 | 0.804 | 1.911 | 7.498 |  |  |  | 
3 | GSLSTPSSGQNQQT | 1.094 | 0.669 | 2.159 | 1.279 |  |  |  | 
4 | GSLVSQGAGQNQQT | 1.436 | 1.246 | 2.188 | 4.414 |  |  |  | 
5 | GSLVSTQSGQNQQT |  |  |  |  | 1.282 | 0.650 | 1.305 | 1.293
6 | GSLVSVQTGQNQQT | 0.903 | 0.469 | 3.534 | 6.043 |  |  |  | 
7 | GSLYGQSLGQNQQT |  |  |  |  | 0.894 | 0.843 | 1.348 | 11.248
8 | GSNAQSAHGQNQQT |  |  |  |  | 0.976 | 0.245 | 1.371 | 0.888
9 | GSNGFTALGQNQQT | 0.830 | 0.332 | 3.361 | 2.663 |  |  |  | 
10 | GSNGGVGTGQNQQT | 1.191 | 1.087 | 2.130 | 0.788 |  |  |  | 
11 | GSNLSFQSGQNQQT | 1.087 | 0.719 | 2.122 | 5.853 |  |  |  | 
12 | GSNMGVPLGQNQQT | 0.334 | 0.420 | 2.049 | 2.448 |  |  |  | 
13 | GSPGVSPSGQNQQT |  |  |  |  | 0.853 | 1.160 | 1.178 | 3.006
14 | GSPLQDRVGQNQQT | 0.469 | 0.391 | 1.548 | 0.753 |  |  |  | 
15 | GSPYMGATGQNQQT | 0.918 | 0.254 | 1.083 | 5.364 |  |  |  | 
16 | GSQSTLGLGQNQQT |  |  |  |  | 0.594 | 0.400 | 1.204 | 3.246
17 | GSRDGHTVGQNQQT | 0.495 | 0.661 | 1.928 | 7.089 |  |  |  | 
18 | GSRETSLSGQNQQT |  |  |  |  | 1.364 | 0.203 | 1.373 | 5.193
19 | GSRLVHVHGQNQQT | 1.277 | 0.934 | 2.334 | 1.174 |  |  |  | 
20 | GSRMTQQFGQNQQT | 1.233 | 0.976 | 1.720 | 25.798 |  |  |  | 

Row | Sequence | Fold enrichment over AAV9 in the brain of Mice (C57Bl/6) ([1]; RNA NGS, brain of C57Bl/6 mice) [fold] | Fold enrichment over AAV9 in the brain of Mice (BALB/c) ([2]; RNA NGS, brain of BALB/c mice) [fold] | Fold enrichment over AAV9 in the brain of NHPs ([3]; RNA NGS, brain of NHPs) [fold] | Fold enrichment over AAV9 in the spinal cord of NHPs ([3]; RNA NGS, spinal cord of NHPs) [fold] | Fold enrichment over AAV9 in the brain of Mice (C57Bl/6) [1, 4] [fold] | Fold enrichment over AAV9 in the brain of Mice (BALB/c) [2, 5] [fold] | Fold enrichment over AAV9 in the brain of NHPs ([3]; RNA from brain of NHPs, NGS) [fold] | Fold enrichment over AAV9 in the spinal cord of NHPs [3, 6] [fold]
21 | GSRNGHAVGQNQQT | 0.434 | 0.939 | 1.574 | 2.688 |  |  |  | 
22 | GSRNGHTVGRNQQT | 1.162 | 0.367 | 1.993 | 0.000 |  |  |  | 
23 | GSRQSKRNELNQQT | 1.325 | 0.232 | 2.177 | 0.000 |  |  |  | 
24 | GSRSQYDIGQNQQT | 0.528 | 0.193 | 1.706 | 0.112 |  |  |  | 
25 | GSRSTGPSGQNQQT | 0.440 | 0.466 | 1.819 | 2.479 |  |  |  | 
26 | GSRTLSNVGQNQQT | 0.617 | 0.542 | 1.640 | 3.219 |  |  |  | 
27 | GSRTTQDIGQNQQT |  |  |  |  | 0.685 | 0.280 | 1.247 | 0.000
28 | GSRTTQVIGQNQQT | 0.773 | 0.564 | 1.570 | 1.838 |  |  |  | 
29 | GSRTVPVYGQNQQT |  |  |  |  | 1.226 | 0.969 | 1.371 | 0.363
30 | GSRTYQVSGQNQQT |  |  |  |  | 0.638 | 0.641 | 1.164 | 1.853
31 | GSSGHRESGQNQQT | 0.641 | 0.691 | 1.048 | 4.398 |  |  |  | 
32 | GSSGIPVSHQNQQT | 0.820 | 0.333 | 1.690 | 3.384 |  |  |  | 
33 | GSSGRDMGGQNQQT | 1.052 | 0.595 | 1.778 | 2.177 |  |  |  | 
34 | GSSGSHQYGQNQQT |  |  |  |  | 1.129 | 0.794 | 1.155 | 0.000
35 | GSSHRFYGGQNQQT | 0.787 | 0.110 | 4.732 | 0.000 |  |  |  | 
36 | GSSHTLALGQNKQT |  |  |  |  | 0.838 | 0.643 | 1.362 | 2.160
37 | GSSHTLALGQNQQT | 0.851 | 0.406 | 1.441 | 7.071 |  |  |  | 
38 | GSSHTQALGQNQQT | 0.882 | 0.874 | 1.784 | 0.143 |  |  |  | 
39 | GSSKELLWGQNQQT | 0.506 | 0.883 | 2.163 | 0.000 |  |  |  | 
40 | GSSPAPNSGQNQQT | 0.719 | 0.368 | 1.106 | 2.229 |  |  |  | 

Reference: US20260250318A1, “COMPOSITIONS AND METHODS FOR CROSSING THE BLOOD BRAIN BARRIER” (VOYAGER THERAPEUTICS, INC., priority 2022, published 2026)
